Test results published in ChEMBL document CHEMBL1123116, “N-[[(Mercaptoacetyl)amino]benzoyl]glycines as mucolytic agents” (1985).

What was measured:
Format in all cases: functional
[1] = organism: Homo sapiens; assay: Percent viscosity reduction after 15 min was tested for in vitro mucolytic activity using pooled human sputum adjusted to pH 7.5 and compared with saline by 0.03 M solution
[2] = organism: Homo sapiens; assay: Percent viscosity reduction after 5 min was tested for in vitro mucolytic activity using pooled human sputum adjusted to pH 7.5 and compared with saline by 0.03 M solution of the compound
[3] = organism: Homo sapiens; assay: Percent viscosity reduction after 15 min was tested for in vitro mucolytic activity using pooled human sputum adjusted to pH 7.5 and compared with saline by 0.03 M solution of the compound
[4] = organism: Homo sapiens; assay: Percent viscosity reduction after 10 min was tested for in vitro mucolytic activity using pooled human sputum adjusted to pH 7.5 and compared with saline by 0.03 M solution of the compound
[5] = organism: Homo sapiens; assay: Percent viscosity reduction after 15 min was tested for in vitro mucolytic activity using pooled human sputum adjusted to pH 7.5 and compared with 0.06 M NAC

Structure (SMILES) | Viscosity reduction [1] [%] | Viscosity [2] [%] | Viscosity [3] [%] | Viscosity [4] [%] | Viscosity [5] [%]
NCCN.O=C(O)CNC(=O)c1cccc(NC(=O)CS)c1 | 44 | – | – | – | –
O=C([O-])CNC(=O)c1cccc(NC(=O)CS)c1.[Na+] | 56 | – | – | – | –
O=C(O)CNC(=O)c1cccc(NC(=O)CS)c1 | 60 | 64 | 90 | 84 | –
O=C(O)CNC(=O)c1ccc(NC(=O)CS)cc1 | 73 | – | – | – | 15
N.O=C(O)CNC(=O)c1cccc(NC(=O)CS)c1 | 59 | – | – | – | –
CC(=O)N[C@@H](CS)C(=O)O [ACETYLCYSTEINE] | – | 27 | 31 | 38 | –
